The values below come from ChEMBL document CHEMBL5390264, “Exploring Fatty Acid Mimetics as NR4A Ligands” (J Med Chem, 2023).

SMILES strings stand for the structures. Active and inactive are the calls of the source. The calls are words filed in the database; no cut-off is given here.

Experiment [1] has as its target T1, Nuclear receptor subfamily 4immunitygroup A member 1 (Homo sapiens, UniProt P22736). In words: Modulation of human Nur77 LBD transiently transfected in HEK293T cells at 100 to 200 uM incubated for 16 hrs by Gal4-hybrid reporter gene based Dual-glo luciferase assay. It counts as cell-based. As to conditions: dose 100-200 µM.
Experiment [2] has as its target T2, Nuclear receptor subfamily 4 group A member 2 (Homo sapiens, UniProt P43354). The experiment can be described thus: Agonist activity at human Nurr1 LBD transiently transfected in HEK293T cells incubated for 16 hrs by Gal4-hybrid reporter gene based Dual-glo luciferase assay. The format is cell-based.
The target of experiment [3] is T1, Nuclear receptor subfamily 4immunitygroup A member 1. The experiment can be described thus: Agonist activity at human Nur77 LBD transiently transfected in HEK293T cells assessed as maximal activation incubated for 16 hrs by Gal4-hybrid reporter gene based Dual-glo luciferase assay relative to control. The format is cell-based. Conditions: filed as agonist. (In general: In a reporter assay the amount or activity of a reporter protein is the signal.)

Experiment [4] has the same target. The experiment can be described thus: Agonist activity at human Nur77 LBD transiently transfected in HEK293T cells incubated for 16 hrs by Gal4-hybrid reporter gene based Dual-glo luciferase assay. The format is cell-based.
Experiment [5] has as its target T3, Nuclear receptor subfamily 4 group A member 3 (Homo sapiens, UniProt Q92570). The experiment can be described thus: Agonist activity at human NOR-1 LBD transiently transfected in HEK293T cells incubated for 16 hrs by Gal4-hybrid reporter gene based Dual-glo luciferase assay. It counts as cell-based.
For experiment [6], the target named is T3, Nuclear receptor subfamily 4 group A member 3. In words: Agonist activity at human NOR-1 LBD transiently transfected in HEK293T cells assessed as maximal activation incubated for 16 hrs by Gal4-hybrid reporter gene based Dual-glo luciferase assay relative to control. It counts as cell-based. Conditions: filed as agonist.
Experiment [7] has as its target T1, Nuclear receptor subfamily 4immunitygroup A member 1. In words: Inverse agonist activity at human Nur77 LBD transiently transfected in HEK293T cells incubated for 16 hrs by Gal4-hybrid reporter gene based Dual-glo luciferase assay. It counts as cell-based.
For experiment [8], the target named is T2, Nuclear receptor subfamily 4 group A member 2. The experiment can be described thus: Inverse agonist activity at human Nurr1 LBD transiently transfected in HEK293T cells incubated for 16 hrs by Gal4-hybrid reporter gene based Dual-glo luciferase assay. The format is cell-based.
Experiment [9] addresses T3, Nuclear receptor subfamily 4 group A member 3. The experiment can be described thus: Inverse agonist activity at human NOR-1 LBD transiently transfected in HEK293T cells incubated for 16 hrs by Gal4-hybrid reporter gene based Dual-glo luciferase assay. It counts as cell-based.
For experiment [10] the target is unchanged. The experiment can be described thus: Modulation of human NOR-1 LBD transiently transfected in HEK293T cells at 100 to 200 uM incubated for 16 hrs by Gal4-hybrid reporter gene based Dual-glo luciferase assay. It counts as cell-based. As to conditions: dose 100-200 µM.
Experiment [11] concerns the target T2, Nuclear receptor subfamily 4 group A member 2. In words: Binding affinity to recombinant N-terminal 6His-tagged Nurr1 LBD (362 to 598 residues) (unknown origin) expressed in Escherichia coli BL21(DE3)-R3-pRARE2 cells assessed as thermal stability by measuring change in melting temperature at 100 uM by SYPRO orange dye based differential scanning fluorimetry analysis. (In general: Differential scanning fluorimetry follows unfolding on heating by fluorescence.)

T3 sequence (Q92570 whole entry, the tested form may be a part): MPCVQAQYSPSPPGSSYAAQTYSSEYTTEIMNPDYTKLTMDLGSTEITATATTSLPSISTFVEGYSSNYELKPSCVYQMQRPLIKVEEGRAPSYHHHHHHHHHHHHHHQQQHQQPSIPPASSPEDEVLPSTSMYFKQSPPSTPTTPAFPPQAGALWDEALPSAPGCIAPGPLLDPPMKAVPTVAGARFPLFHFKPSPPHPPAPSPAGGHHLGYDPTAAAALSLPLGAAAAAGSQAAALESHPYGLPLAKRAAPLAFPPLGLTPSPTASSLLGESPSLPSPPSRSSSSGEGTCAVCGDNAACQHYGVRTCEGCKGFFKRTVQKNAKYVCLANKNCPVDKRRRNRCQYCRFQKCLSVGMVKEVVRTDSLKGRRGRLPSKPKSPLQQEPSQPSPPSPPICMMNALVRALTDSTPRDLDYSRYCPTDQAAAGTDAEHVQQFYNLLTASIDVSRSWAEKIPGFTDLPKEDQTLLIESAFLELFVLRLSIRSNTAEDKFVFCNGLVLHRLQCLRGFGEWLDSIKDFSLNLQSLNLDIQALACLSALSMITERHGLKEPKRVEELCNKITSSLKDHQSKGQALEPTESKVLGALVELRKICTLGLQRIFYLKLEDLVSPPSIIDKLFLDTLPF
T2 sequence (P43354 whole entry, the tested form may be a part): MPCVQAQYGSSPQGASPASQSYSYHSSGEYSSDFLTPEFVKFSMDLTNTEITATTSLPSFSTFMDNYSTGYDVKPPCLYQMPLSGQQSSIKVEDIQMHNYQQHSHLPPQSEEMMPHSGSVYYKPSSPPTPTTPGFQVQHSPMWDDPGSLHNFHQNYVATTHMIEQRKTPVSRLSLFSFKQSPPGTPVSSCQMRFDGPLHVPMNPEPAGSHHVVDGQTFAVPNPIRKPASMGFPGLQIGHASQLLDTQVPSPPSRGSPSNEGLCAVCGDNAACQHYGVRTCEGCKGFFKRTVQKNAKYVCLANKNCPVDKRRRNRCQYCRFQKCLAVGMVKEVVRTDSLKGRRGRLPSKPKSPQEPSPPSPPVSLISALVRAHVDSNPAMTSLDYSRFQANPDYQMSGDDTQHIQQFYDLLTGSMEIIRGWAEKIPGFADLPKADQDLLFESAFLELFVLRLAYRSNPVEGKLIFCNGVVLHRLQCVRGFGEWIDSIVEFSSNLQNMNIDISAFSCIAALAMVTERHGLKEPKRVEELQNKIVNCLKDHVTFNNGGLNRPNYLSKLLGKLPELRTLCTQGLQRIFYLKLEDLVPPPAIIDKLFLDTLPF
T1 sequence (P22736 whole entry, the tested form may be a part): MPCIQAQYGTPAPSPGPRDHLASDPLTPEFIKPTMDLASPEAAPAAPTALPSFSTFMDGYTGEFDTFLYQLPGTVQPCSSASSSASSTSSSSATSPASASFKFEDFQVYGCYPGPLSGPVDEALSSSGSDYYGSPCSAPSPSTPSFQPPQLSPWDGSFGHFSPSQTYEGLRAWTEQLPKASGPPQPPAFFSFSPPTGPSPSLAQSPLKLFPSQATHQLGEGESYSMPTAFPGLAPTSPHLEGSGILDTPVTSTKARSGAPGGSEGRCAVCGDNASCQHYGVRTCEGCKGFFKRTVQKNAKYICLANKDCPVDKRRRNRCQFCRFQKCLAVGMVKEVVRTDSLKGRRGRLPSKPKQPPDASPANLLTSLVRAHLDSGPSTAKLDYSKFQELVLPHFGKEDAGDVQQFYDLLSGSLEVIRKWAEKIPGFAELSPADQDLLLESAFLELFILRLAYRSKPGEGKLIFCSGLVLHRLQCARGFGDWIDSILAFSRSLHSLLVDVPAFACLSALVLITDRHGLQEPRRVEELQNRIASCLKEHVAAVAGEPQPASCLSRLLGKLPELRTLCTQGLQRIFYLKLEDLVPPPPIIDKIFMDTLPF

In the case of `COc1ccccc1CC(=O)O`, the result in experiment [1] was inactive.

On to `O=C(O)c1cccc(OCc2cccc(F)c2)c1`, for which, in experiment [2] (read-out: EC50), the EC50 (in general, the concentration at which the effect is half-maximal) worked out at 3 µM.

For `O=C(O)c1ccc(OCc2ccc(F)cc2)cc1`, in [2] (read-out: EC50), the EC50 worked out at 12 µM.

On to `C/C(=C\C(=O)O)c1ccc(C(F)(F)F)cc1`, for which the Emax (commonly the greatest response seen or fitted, relative to the assay's reference) in experiment [3] amounted to 162%; in [6], 157%. Besides, the EC50 is 28 µM in experiment [4], 76 µM in experiment [2] (read-out: EC50) and 36 µM in experiment [5].

Regarding `O=C(O)c1ccc(OCc2ccc(Cl)cc2)cc1`, the EC50 in experiment [2] (read-out: EC50) was 6 µM.

On to `O=C(O)c1cccc(OCc2ccc(F)cc2)c1`, for which the EC50 in experiment [2] (read-out: EC50) stood at 19 µM.

`O=C(O)c1ccccc1C(=O)c1ccc(Cl)cc1`: the IC50 (in general, the midpoint of a concentration-inhibition curve) in experiment [7] is 99 µM; in experiment [8] it was > 100 µM; in experiment [9], 111 µM.

Take `O=C(O)c1ccnc2ccccc12`: the outcome in [1] was inactive.

For `Cn1nnc2c(C(=O)O)ncn2c1=O`, the result in experiment [1] was inactive.

Turning to `O=C(O)c1ccc(OCc2ccccc2)cc1`, the results for the Emax in experiment [3] and in experiment [6] were 158% and 166%, respectively. Moreover, the figures for the EC50 in experiment [4], in experiment [2] (read-out: EC50) and in experiment [5] were 8 µM, 9 µM and 13 µM, respectively.

Take `O=C(O)c1ccc(Oc2ccccc2)cc1`: the result in experiment [1] was inactive.

As for `CCc1c(C(=O)O)cnn1-c1ccccc1`, the EC50 in [4] was > 100 µM; in [5] it was 73 µM.

Take `O=C(O)CC(c1ccccc1)c1ccccc1`: the result in experiment [10] was inactive.

Take `CN(C)c1ccc(/N=N/c2ccccc2C(=O)O)cc1`: the result in experiment [10] was inactive.

For `O=C(O)c1cccc(OCc2ccc(Cl)cc2Cl)c1`, the results for the EC50 in [4] and in [5] were 0.04 µM and 0.15 µM, respectively.

Take `O=C(O)c1cccc2ccccc12` [NAPHTHOIC ACID]: the values for the Emax in experiment [3] and in experiment [6] were 183% and 136%, respectively. For the same compound, the EC50 in [4] stood at 48 µM; in [2] (read-out: EC50) it was 54 µM; in experiment [5] it was 56 µM.

As for `O=Cc1ccc(C(=O)O)cc1`, the outcome in [1] and in experiment [10] was inactive.

In the case of `O=C(O)CN(CCO)CCO`, in experiment [1], the outcome was inactive.

On to `COc1cc(C(=O)O)cc(OC)c1OC`, for which the outcome in [1] was inactive.

On to `CCC(Oc1cc(Cl)cc(Cl)c1)C(=O)O` (stereo unspecified), for which the outcome in experiment [1] was inactive.

Consider `O=C(O)c1ccc(OCc2cccc(-c3ccccc3)c2)cc1`, for which the EC50 result in experiment [2] (hek293t) is “Not Determined(Insoluble)”.

As to `O=C(O)c1cccc(OCc2ccccc2)c1`, the EC50 in experiment [2] (read-out: EC50) was 8 µM.

As to `COc1cccc(-c2ccc(NC(=O)C3=C(C(=O)O)CCC3)c(F)c2)c1`, in experiment [11], the ΔTm (as a rule, the shift of the melting midpoint relative to a reference) is -0.94 °C.

As for `O=C(O)c1cccc(OCc2ccccc2Cl)c1`, the EC50 in experiment [2] (read-out: EC50) worked out at 3 µM.

In the case of `N#Cc1c(F)c(F)cc(C(=O)O)c1F`, the IC50 in [7] and in [9] was > 100 µM in each case.

In the case of `CSc1nccn1-c1ccc(C(=O)O)cc1`, the IC50 is 9 µM in [7], 37 µM in [8] and > 100 µM in [9].

Consider `O=C(O)/C=C/c1ccc(Cl)c(Cl)c1`, for which the result in [10] was inactive.

Regarding `O=C(O)CCC(=O)c1ccccc1`, the EC50 was > 100 µM in [4], 90 µM in experiment [2] (read-out: EC50) and > 100 µM in experiment [5].

`O=C(O)C(c1ccccc1)(c1ccccc1)c1ccccc1`: the IC50 in [7] and in experiment [9] was > 100 µM each time.

As for `O=C(O)c1ccc(OCc2cccc(C(F)(F)F)c2)cc1`, the EC50 in experiment [2] (read-out: EC50) amounted to 18 µM.

With `O=C(O)c1ccc(-c2cccc(F)c2)o1`, the Emax in experiment [3] was 158%; in experiment [6] it was 148%. Moreover, the EC50 in experiment [4] is 9 µM; in experiment [2] (read-out: EC50) it was 6 µM; in experiment [5], 6 µM.

In the case of `O=C(O)c1ccc(OCc2ccccc2Cl)cc1`, the EC50 in [2] (read-out: EC50) was determined as 0.05 µM.

For `O=C(O)c1ccccc1CCc1ccccc1`, the IC50 in [7] and in [9] was > 100 µM in each case.
